Assay results from ChEMBL document CHEMBL3885861, “Open TG-GATES”.

Species on record: Rattus norvegicus
Experiment: Open TG-GATES - Regimen: Single
Assay type: toxicity, organism-based, Sprague-Dawley
Set-up: regimen Single, gender Male, age 6 weeks
Details: in vivo, po, 0 mg/kg, route gavage, dose level Control; for APTT / Bas / Eos / Fbg / Hb / Ht / Lym / MCHC / MCV / Mono / Neu / PT / Plat / RBC / Ret / WBC: tissue Blood; for KIDNEY_L / KIDNEY_R / KIDNEY_TOTAL: tissue Kidney; for LIVER: tissue Liver; for ALP / ALT / AST / BUN / CRE / Ca / Cl / DBIL / GLC / IP / K / LDH / Na / PL / RALB / TBIL / TC / TG / TP / gamma-GTP: tissue Plasma

With `CS(=O)(=O)Nc1ccc([N+](=O)[O-])cc1Oc1ccccc1` [NIMESULIDE] as the compound, how does the TERMINAL_BW (3 h) read?
Its TERMINAL_BW is 201.3 g.

And the APTT (3 h)?
Its APTT is 17.1 s.

And the Bas (3 h)?
The Bas was 0%.

What about the Eos (3 h) of the same compound?
The Eos was 1.4%.

And the Fbg (3 h)?
The Fbg was 212 mg/dL.

What about the Hb (3 h) of the same compound?
The Hb was 14.1 g/dL.

And the Ht (3 h)?
The Ht was 41.1%.

What about the Lym (3 h) of the same compound?
The Lym was 77%.

And the MCHC (3 h)?
Its MCHC is 34.3%.

What about the MCV (3 h) of the same compound?
Its MCV is 64.2 fL.

What about the Mono (3 h) of the same compound?
Its Mono is 6.2%.

And the Neu (3 h)?
Its Neu is 15.6%.

What about the PT (3 h) of the same compound?
Its PT is 12.4 s.

And the Plat (3 h)?
The Plat was 118.2 x10_4/uL.

And the RBC (3 h)?
The RBC was 640.8 x10_4/ul.

What about the Ret (3 h) of the same compound?
The Ret was 10.6%.

What about the WBC (3 h) of the same compound?
The WBC was 89.8 x10_2/uL.

And the KIDNEY_L (3 h)?
Its KIDNEY_L is 0.9 g.

What about the KIDNEY_R (3 h) of the same compound?
The KIDNEY_R was 0.9 g.

What about the KIDNEY_TOTAL (3 h) of the same compound?
Its KIDNEY_TOTAL is 1.9 g.

What about the LIVER (3 h) of the same compound?
The LIVER was 9.7 g.

What about the ALP (3 h) of the same compound?
The ALP was 917.4 IU/L.

And the ALT (3 h)?
Its ALT is 37.4 IU/L.

And the AST (3 h)?
The AST was 63.4 IU/L.

What about the BUN (3 h) of the same compound?
The BUN was 12.4 mg/dL.

What about the CRE (3 h) of the same compound?
Its CRE is 0.5 mg/dL.

And the Ca (3 h)?
Its Ca is 11 mg/dL.

And the Cl (3 h)?
Its Cl is 105.4 meq/L.

What about the DBIL (3 h) of the same compound?
Its DBIL is 0.048 mg/dL.

What about the GLC (3 h) of the same compound?
The GLC was 197.2 mg/dL.

And the IP (3 h)?
The IP was 9.6 mg/dL.

And the K (3 h)?
Its K is 4.8 meq/L.

What about the LDH (3 h) of the same compound?
The LDH was 65.8 IU/L.

And the Na (3 h)?
Its Na is 141.8 meq/L.

What about the PL (3 h) of the same compound?
The PL was 133.6 mg/dL.

What about the RALB (3 h) of the same compound?
The RALB was 3.7 g/dL.

And the TBIL (3 h)?
The TBIL was 0.3 mg/dL.

What about the TC (3 h) of the same compound?
The TC was 75 mg/dL.

And the TG (3 h)?
Its TG is 57.4 mg/dL.

And the TP (3 h)?
Its TP is 5.3 g/dL.

And the gamma-GTP (3 h)?
The gamma-GTP was 1.6 IU/L.

What about the TERMINAL_BW (6 h) of the same compound?
The TERMINAL_BW was 196.6 g.

What about the APTT (6 h) of the same compound?
The APTT was 17.7 s.

What about the Bas (6 h) of the same compound?
Its Bas is 0%.

What about the Eos (6 h) of the same compound?
The Eos was 1%.

What about the Fbg (6 h) of the same compound?
Its Fbg is 209.6 mg/dL.

And the Hb (6 h)?
The Hb was 13.6 g/dL.

And the Ht (6 h)?
The Ht was 40.3%.

What about the Lym (6 h) of the same compound?
The Lym was 72.6%.

What about the MCHC (6 h) of the same compound?
The MCHC was 33.7%.

What about the MCV (6 h) of the same compound?
The MCV was 65.3 fL.

What about the Mono (6 h) of the same compound?
Its Mono is 7.8%.

And the Neu (6 h)?
Its Neu is 19%.

And the PT (6 h)?
The PT was 12.5 s.

What about the Plat (6 h) of the same compound?
The Plat was 116.9 x10_4/uL.

And the RBC (6 h)?
The RBC was 617.4 x10_4/ul.

What about the Ret (6 h) of the same compound?
The Ret was 11.4%.

What about the WBC (6 h) of the same compound?
The WBC was 109.3 x10_2/uL.

And the KIDNEY_L (6 h)?
Its KIDNEY_L is 0.8 g.

What about the KIDNEY_R (6 h) of the same compound?
The KIDNEY_R was 0.9 g.

And the KIDNEY_TOTAL (6 h)?
The KIDNEY_TOTAL was 1.7 g.

And the LIVER (6 h)?
Its LIVER is 8.5 g.

What about the ALP (6 h) of the same compound?
Its ALP is 832.8 IU/L.

What about the ALT (6 h) of the same compound?
Its ALT is 35.8 IU/L.

And the AST (6 h)?
The AST was 63.2 IU/L.

And the BUN (6 h)?
Its BUN is 12.4 mg/dL.

What about the CRE (6 h) of the same compound?
The CRE was 0.6 mg/dL.

What about the Ca (6 h) of the same compound?
The Ca was 10.7 mg/dL.

And the Cl (6 h)?
Its Cl is 105.6 meq/L.

And the DBIL (6 h)?
The DBIL was 0.062 mg/dL.

And the GLC (6 h)?
The GLC was 188 mg/dL.

And the IP (6 h)?
Its IP is 10.2 mg/dL.

And the K (6 h)?
The K was 4.9 meq/L.

And the LDH (6 h)?
The LDH was 62.6 IU/L.

What about the Na (6 h) of the same compound?
Its Na is 140.4 meq/L.

And the PL (6 h)?
The PL was 139.6 mg/dL.

And the RALB (6 h)?
The RALB was 3.7 g/dL.

What about the TBIL (6 h) of the same compound?
Its TBIL is 0.4 mg/dL.

And the TC (6 h)?
The TC was 83.2 mg/dL.

And the TG (6 h)?
The TG was 52.8 mg/dL.

And the TP (6 h)?
Its TP is 5.2 g/dL.

And the gamma-GTP (6 h)?
Its gamma-GTP is 2 IU/L.

What about the TERMINAL_BW (9 h) of the same compound?
Its TERMINAL_BW is 196.3 g.

And the APTT (9 h)?
Its APTT is 17.5 s.

What about the Bas (9 h) of the same compound?
Its Bas is 0%.

And the Eos (9 h)?
The Eos was 1%.

And the Fbg (9 h)?
Its Fbg is 204.8 mg/dL.

And the Hb (9 h)?
The Hb was 13.4 g/dL.

What about the Ht (9 h) of the same compound?
Its Ht is 39.5%.

What about the Lym (9 h) of the same compound?
Its Lym is 71.6%.

And the MCHC (9 h)?
Its MCHC is 33.9%.

And the MCV (9 h)?
The MCV was 64.3 fL.

What about the Mono (9 h) of the same compound?
Its Mono is 9%.

What about the Neu (9 h) of the same compound?
The Neu was 18.6%.

And the PT (9 h)?
Its PT is 12.4 s.

And the Plat (9 h)?
Its Plat is 110.8 x10_4/uL.

What about the RBC (9 h) of the same compound?
Its RBC is 614 x10_4/ul.

And the Ret (9 h)?
Its Ret is 10.8%.

And the WBC (9 h)?
The WBC was 94 x10_2/uL.

And the KIDNEY_L (9 h)?
Its KIDNEY_L is 0.9 g.

And the KIDNEY_R (9 h)?
The KIDNEY_R was 1 g.

And the KIDNEY_TOTAL (9 h)?
Its KIDNEY_TOTAL is 1.9 g.

What about the LIVER (9 h) of the same compound?
Its LIVER is 8.3 g.

And the ALP (9 h)?
The ALP was 898.6 IU/L.

And the ALT (9 h)?
The ALT was 31.4 IU/L.

What about the AST (9 h) of the same compound?
The AST was 59.8 IU/L.

What about the BUN (9 h) of the same compound?
Its BUN is 12.4 mg/dL.

What about the CRE (9 h) of the same compound?
Its CRE is 0.5 mg/dL.

What about the Ca (9 h) of the same compound?
Its Ca is 10.6 mg/dL.

What about the Cl (9 h) of the same compound?
Its Cl is 106 meq/L.

And the DBIL (9 h)?
Its DBIL is 0.028 mg/dL.

What about the GLC (9 h) of the same compound?
Its GLC is 193.6 mg/dL.

What about the IP (9 h) of the same compound?
The IP was 10.3 mg/dL.

And the K (9 h)?
Its K is 5 meq/L.

And the LDH (9 h)?
The LDH was 79.2 IU/L.

What about the Na (9 h) of the same compound?
Its Na is 138.4 meq/L.

What about the PL (9 h) of the same compound?
The PL was 128.4 mg/dL.

And the RALB (9 h)?
Its RALB is 4 g/dL.

What about the TBIL (9 h) of the same compound?
Its TBIL is 0.3 mg/dL.

What about the TC (9 h) of the same compound?
The TC was 70.8 mg/dL.

What about the TG (9 h) of the same compound?
Its TG is 47.6 mg/dL.

What about the TP (9 h) of the same compound?
Its TP is 5.3 g/dL.

What about the gamma-GTP (9 h) of the same compound?
The gamma-GTP was 1.2 IU/L.

What about the TERMINAL_BW (24 h) of the same compound?
Its TERMINAL_BW is 217.2 g.

And the APTT (24 h)?
The APTT was 16.3 s.

And the Bas (24 h)?
The Bas was 0%.

What about the Eos (24 h) of the same compound?
Its Eos is 1%.

What about the Fbg (24 h) of the same compound?
The Fbg was 201 mg/dL.

And the Hb (24 h)?
Its Hb is 13.1 g/dL.

And the Ht (24 h)?
The Ht was 38.9%.

And the Lym (24 h)?
Its Lym is 71.6%.

What about the MCHC (24 h) of the same compound?
Its MCHC is 33.7%.

And the MCV (24 h)?
Its MCV is 66 fL.

And the Mono (24 h)?
The Mono was 10.8%.

What about the Neu (24 h) of the same compound?
Its Neu is 16.6%.

And the PT (24 h)?
Its PT is 11.7 s.

And the Plat (24 h)?
Its Plat is 118.1 x10_4/uL.

And the RBC (24 h)?
Its RBC is 590.2 x10_4/ul.

What about the Ret (24 h) of the same compound?
The Ret was 10.9%.

What about the WBC (24 h) of the same compound?
Its WBC is 107.9 x10_2/uL.

And the KIDNEY_L (24 h)?
Its KIDNEY_L is 1 g.

What about the KIDNEY_R (24 h) of the same compound?
The KIDNEY_R was 1 g.

And the KIDNEY_TOTAL (24 h)?
The KIDNEY_TOTAL was 1.9 g.

What about the LIVER (24 h) of the same compound?
The LIVER was 10.4 g.

What about the ALP (24 h) of the same compound?
Its ALP is 1023 IU/L.

What about the ALT (24 h) of the same compound?
The ALT was 35 IU/L.

And the AST (24 h)?
Its AST is 62.8 IU/L.

What about the BUN (24 h) of the same compound?
Its BUN is 18.4 mg/dL.

What about the CRE (24 h) of the same compound?
The CRE was 0.5 mg/dL.

And the Ca (24 h)?
Its Ca is 10.7 mg/dL.

And the Cl (24 h)?
The Cl was 104.4 meq/L.

And the DBIL (24 h)?
The DBIL was 0.012 mg/dL.

And the GLC (24 h)?
The GLC was 190.4 mg/dL.

What about the IP (24 h) of the same compound?
The IP was 7.8 mg/dL.

And the K (24 h)?
The K was 4.9 meq/L.

And the LDH (24 h)?
Its LDH is 81.4 IU/L.

What about the Na (24 h) of the same compound?
The Na was 139.6 meq/L.

What about the PL (24 h) of the same compound?
The PL was 150.8 mg/dL.

And the RALB (24 h)?
Its RALB is 4.1 g/dL.

And the TBIL (24 h)?
The TBIL was 0.3 mg/dL.

What about the TC (24 h) of the same compound?
The TC was 79.8 mg/dL.

And the TG (24 h)?
The TG was 86.8 mg/dL.

And the TP (24 h)?
The TP was 5.5 g/dL.

And the gamma-GTP (24 h)?
The gamma-GTP was 1.8 IU/L.
